One series relates to MIA PaCa-2 cells. As to the kind of experiment: 3D-TGA. The class given is cell-based, human.
Another series concerns A-427 cells. The series is described as follows: 3D-TGA. Conditions: A-427, LUN, KRAS G12D. The series is classed as cell-based, human. The procedure: (§1) Cells were seeded in 3D cultures in a black-walled, clear-bottom, non-tissue culture treated, 384-well plate (3000 cells per well) using a 1:1 mixture of BME and a custom media and grown in a humidified incubator with 5% CO2 and 5% O2, which approximates capillary levels for each gas, at 37° C. […] Cells were assessed for cell proliferation using EdU cell proliferation staining. […] Cells were permeabilized with 30 μL of filtered 0.5% Triton X-100 in PBS for 20 minutes at room temperature. Samples were washed twice gently with PBS. Cells were stained utilizing click-iT chemistry by adding 20 μL of staining cocktail containing 2 mM copper sulfate, 8 μM sulfo-Cy5-azide, and 20 mg/ml ascorbic acid in PBS and incubated 30-60 minutes at room temperature in dark. […] Plates were imaged with the Molecular Devices Pico ImageXpress. Images were segmented and percentage of cells with EdU incorporation was quantified to calculate antiproliferative effects of the drugs.
(§2) Five (5)-ethynyl-2′-deoxyuridine (EdU) data was represented as percentage EdU positive cells quantified by high content imaging from the Molecular Devices ImageXpress® Pico.

Another series has as its system A549 cells. The series is described as follows: 3D-TGA. The class given is cell-based, human. The following applies: Homo sapiens; A549, LUN, KRAS G12S; read-out: IC50 in 3D-TGA, CDK-4-6 inhibitor alone. The procedure:
as §1, §2

The test system of the next series is Calu-6 cells. The series is described as follows: 3D-TGA. The series is classed as cell-based, human. The following applies: Homo sapiens; Calu-6, LUN, KRAS Q61K; read-out: IC50 in 3D-TGA, CDK-4-6 inhibitor alone. As for the experimental part: as §1, §2
The next series deals with HT-29 cells. The series is described as follows: 3D-TGA. The series is classed as cell-based, human. The following applies: Homo sapiens; HT-29, COL, BRAF V600E; read-out: IC50 in 3D-TGA, CDK-4-6 inhibitor alone. As for the experimental part: as §1, §2
For a further series, the system named is NCI-H508 cells. As to the kind of experiment: 3D-TGA. Conditions: Homo sapiens. The series is classed as cell-based.
Another series has as its system SK-CO-1 cells. The series is described as follows: 3D-TGA. The class given is cell-based. Conditions: Homo sapiens.
A further series relates to LS411N cells. The series is described as follows: 3D-TGA. The series is classed as cell-based. Conditions: Homo sapiens, LS-411N.
The subject of another series is NCI-H358 cells. As to the kind of experiment: 3D-TGA. The series is classed as cell-based, human.
The test system of a further series is NCI-H1792 cells. As to the kind of experiment: 3D-TGA. The series is classed as cell-based, human.
A further series concerns NCI-H820 cells. The series is described as follows: 3D-TGA. The class given is cell-based. The following applies: Homo sapiens.
For the next series, the system named is NCI-H1975 cells. The series is described as follows: 3D-TGA. The class given is cell-based. Conditions: Homo sapiens.
The next series concerns NCI-H1650 cells. The series is described as follows: 3D-TGA. Conditions: Homo sapiens. The series is classed as cell-based.
The next series relates to NCI-H2172 cells. As to the kind of experiment: 3D-TGA. The series is classed as cell-based. Conditions: Homo sapiens.
For series [1] the following is noted: human, in vivo; cited from earlier work.
The conditions of series [2]: in vivo.
The subject of series [3] is ERK-induced transcription in Colon-26 tumors. The series is described as follows: Colon-26 tumor RNA sequencing, ERK transcriptome. The class given is in vivo, BALB/c mice. The following applies: 100 mg/kg BID PO, day 18, Colon-26.
The subject of series [4] is tumor models (cell lines). As to the kind of experiment: Humanized 3D tumor growth assay (3D-TGA), tumor model panel / other cell lines. The class given is cell-based, human. Conditions: read-out: IC50 in 3D-TGA Ifebemetinib, KRAS G12D, agent alone.
Text: The humanized 3D tumor growth assay (3D-TGA) is an extracellular matrix (ECM)-based, 3D tumor model that more faithfully mimics the human tumor microenvironment (TME) with the goal of improving translational fidelity to patients. See Casneuf T, et al., “Interleukin-6 is a potential therapeutic target in interleukin-6 dependent, estrogen receptor-α-positive breast cancer,” Breast Cancer (Dove Med Press). […] MEK inhibition in the 3D-TGA. […]
All cell lines were validated by IDEXX upon receipt and assay setup. See Appendix for full cell line list.
as §1, §2

For a further series, the system named is AsPC-1 cells. As to the kind of experiment: 3D-TGA. The series is classed as cell-based, human. The following applies: read-out: IC50 in 3D-TGA Ifebemetinib; AsPC-1, PAN, KRAS G12D; agent alone. The procedure: as §1, §2
The subject of another series is CL-40 cells. As to the kind of experiment: 3D-TGA. The series is classed as cell-based, human. The following applies: read-out: IC50 in 3D-TGA Ifebemetinib; CL-40, COL, KRAS G12D; agent alone. As for the experimental part: as §1, §2
The test system of a further series is HCC-44 cells. The series is described as follows: 3D-TGA. The series is classed as cell-based, human. The following applies: read-out: IC50 in 3D-TGA Ifebemetinib; HCC-44, LUN, KRAS G12C; agent alone. The procedure:
as §1, §2

In a further series the test system is HPAC cells. The series is described as follows: 3D-TGA. The series is classed as cell-based, human. The following applies: read-out: IC50 in 3D-TGA Ifebemetinib, PAN, KRAS G12D, agent alone. The procedure: as §1, §2
The test system of another series is HPAF-II cells. The series is described as follows: 3D-TGA. The series is classed as cell-based, human. The following applies: read-out: IC50 in 3D-TGA Ifebemetinib, PAN, KRAS G12D, agent alone. As for the experimental part: as §1, §2
A further series concerns LU99 cells. The series is described as follows: 3D-TGA. The class given is cell-based, human. The following applies: read-out: IC50 in 3D-TGA Ifebemetinib; LU99, LUN, KRAS G12C; agent alone. The procedure:
as §1, §2

A further series concerns NCI-H2030 cells. As to the kind of experiment: 3D-TGA. The class given is cell-based, human. Conditions: read-out: IC50 in 3D-TGA Ifebemetinib; NCI-H2030, LUN, KRAS G12C; agent alone. The procedure:
as §1, §2

The next series relates to NCI-H2122 cells. The series is described as follows: 3D-TGA. The class given is cell-based, human. Conditions: read-out: IC50 in 3D-TGA Ifebemetinib; NCI-H2122, LUN, KRAS G12C; agent alone. As for the experimental part:
as §1, §2

Another series concerns PANC-1 cells. The series is described as follows: 3D-TGA. The class given is cell-based, human. Conditions: read-out: IC50 in 3D-TGA Ifebemetinib; PANC-1, PAN, KRAS G12D; agent alone. The procedure: as §1, §2
The subject of another series is Panc 10.05 cells. The series is described as follows: 3D-TGA. The series is classed as cell-based, human. Conditions: read-out: IC50 in 3D-TGA Ifebemetinib; Panc 10.05, PAN, KRAS G12D; agent alone. As for the experimental part:
as §1, §2

Setting [5] is: Homo sapiens, MIA PaCa-2, PAN, KRAS G12C, read-out: IC50 in 3D-TGA, CDK-4-6 inhibitor alone.
Where [6] appears, read: Homo sapiens, read-out: IC50 in 3D-TGA, CDK-4-6 inhibitor alone.

pIC50: −log10 of the molar value. Read-outs that look alike come from different tables or passages of the source. Where only a bound is given, the exact number is not on record here.

With `CCN1CCN(Cc2ccc(Nc3ncc(F)c(-c4cc(F)c5nc(C)n(C(C)C)c5c4)n3)nc2)CC1` [Abemaciclib, abemaciclib], the pIC50 is 6.00 in the series on MIA PaCa-2 cells (setting [5]); 6.30 to 7.00 with A-427 cells (setting [6]); 6.30 to 7.00 with A549 cells; 6.00 in the series on Calu-6 cells; 6.00 with HT-29 cells.
On to `CN(C)C/C=C/C(=O)Nc1cc2c(Nc3ccc(F)c(Cl)c3)ncnc2cc1O[C@H]1CCOC1` [Afatinib, afatinib], for which the pIC50 in the series on MIA PaCa-2 cells (Homo sapiens, MIA PaCa-2, read-out: IC50 in 3D-TGA Afatinib) is 6.00; with NCI-H508 cells (NCI-H508, read-out: IC50 in 3D-TGA Afatinib), 6.00 to 6.30; in the series on SK-CO-1 cells (SK-CO-1, read-out: IC50 in 3D-TGA Afatinib), 6.00; in the series on LS411N cells (read-out: IC50 in 3D-TGA Afatinib), 6.00; in the series on NCI-H358 cells (Homo sapiens, NCI-H358, read-out: IC50 in 3D-TGA Afatinib) it was 6.00; with NCI-H1792 cells (Homo sapiens, NCI-H1792, read-out: IC50 in 3D-TGA Afatinib), 6.00. In addition, the pIC50 was 6.00 in the series with NCI-H820 cells (NCI-H820, read-out: IC50 in 3D-TGA Afatinib); 6.00 in the series with NCI-H1975 cells (NCI-H1975, read-out: IC50 in 3D-TGA Afatinib); 6.00 with NCI-H1650 cells (NCI-H1650, read-out: IC50 in 3D-TGA Afatinib); 6.00 in the series with NCI-H2172 cells (NCI-H2172, read-out: IC50 in 3D-TGA Afatinib).
In the case of `C#Cc1cccc(Nc2ncnc3cc(OCCOC)c(OCCOC)cc23)c1` [Erlotinib, erlotinib], the pIC50 in the series with MIA PaCa-2 cells (Homo sapiens, read-out: IC50 in 3D-TGA Erlotinib, MIA PACA-2, PAN, KRAS G12C, agent alone) was 6.00; in the series on NCI-H508 cells (read-out: IC50 in 3D-TGA Erlotinib, NCI-H508, COL, BRAF G596R, agent alone) it was 6.00; in the series with SK-CO-1 cells (read-out: IC50 in 3D-TGA Erlotinib, SK-CO-1, COL, KRAS G12V, agent alone), 6.00; in the series with LS411N cells (read-out: IC50 in 3D-TGA Erlotinib, LS411N, COL, BRAF V600E, agent alone), 6.00; with NCI-H358 cells (Homo sapiens, read-out: IC50 in 3D-TGA Erlotinib, NCI-H358, LUN, KRAS G12C, agent alone), 6.00; in the series with NCI-H1792 cells (Homo sapiens, read-out: IC50 in 3D-TGA Erlotinib, NCI-H1792, LUN, KRAS G12C, agent alone), 6.00. For the same compound, the pIC50 in the series on NCI-H820 cells (read-out: IC50 in 3D-TGA Erlotinib, NCI-H820, LUN, EGFR T790M, agent alone) was 6.00; in the series with NCI-H1975 cells (read-out: IC50 in 3D-TGA Erlotinib, NCI-H1975, LUN, EGFR L858R, agent alone), 6.00; with NCI-H1650 cells (read-out: IC50 in 3D-TGA Erlotinib, NCI-H1650, LUN, EGFR E746_A750 del, agent alone), 6.00; in the series on NCI-H2172 cells (read-out: IC50 in 3D-TGA Erlotinib, NCI-H2172, LUN, EGFR L858R, agent alone), 6.00.
Regarding `CC(=O)c1c(C)c2cnc(Nc3ccc(N4CCNCC4)cn3)nc2n(C2CCCC2)c1=O` [Palbociclib, palbociclib], the pIC50 is 6.00 in the series with MIA PaCa-2 cells (setting [5]); 6.00 to 6.30 in the series on A-427 cells (setting [6]); 6.30 to 7.00 with A549 cells; 6.00 with Calu-6 cells; 6.00 in the series on HT-29 cells.
For the compound `Cn1cnc2c(F)c(Nc3ccc(Br)cc3F)c(C(=O)NOCCO)cc21` [binimetinib], the half-lives in series [1] was 3.5 h.
On to `O=C(c1ccc(F)c(F)c1Nc1ccc(I)cc1F)N1CC(O)([C@@H]2CCCCN2)C1` [cobimetinib], for which the half-lives per cycle in [2] was ≤ 0.55.
For the compound `Cn1cnc2c(F)c(Nc3ccc(Br)cc3Cl)c(C(=O)NOCCO)cc21` [selumetinib], in series [3], the “ERK transcriptome, 2 h vs 12 h post-dose” value is “sustained MAPK pathway suppression”. Also, in series [1], the half-lives was 6.2 h.
Turning to `CC(=O)Nc1cccc(-n2c(=O)n(C3CC3)c(=O)c3c(Nc4ccc(I)cc4F)n(C)c(=O)c(C)c32)c1` [trametinib], the half-lives per cycle in series [2] was ≤ 0.25.
Take ifebemetinib: the negative-log IC50 (pIC50) in series [4] (COLO 678, COL) is < 6.00; in series [4] (T3M-10, LUN) it was < 6.00; with MIA PaCa-2 cells (read-out: IC50 in 3D-TGA Ifebemetinib, MIA PaCa-2, PAN, KRAS G12C, agent alone), < 6.00; in the series with A-427 cells (read-out: IC50 in 3D-TGA Ifebemetinib, agent alone), < 6.00; with AsPC-1 cells it was < 6.00; with CL-40 cells, < 6.00. For the same compound, the pIC50 was < 6.00 in the series with HCC-44 cells; < 6.00 with HPAC cells; < 6.00 in the series with HPAF-II cells; < 6.00 with LU99 cells; 6.00 to 6.30 in the series on NCI-H2030 cells; < 6.00 in the series on NCI-H2122 cells. Also, the pIC50 is < 6.00 in the series on PANC-1 cells; < 6.00 with Panc 10.05 cells; < 6.00 with NCI-H358 cells (read-out: IC50 in 3D-TGA Ifebemetinib, NCI-H358, LUN, KRAS G12C, agent alone); < 6.00 in the series with NCI-H1792 cells (read-out: IC50 in 3D-TGA Ifebemetinib, NCI-H1792, LUN, KRAS G12C, agent alone).

For orientation: pIC50 means the negative decadic logarithm of the IC50, by convention in mol/L.

Source of the values: patent US20260284005A1, “INHIBITING MITOGEN-ACTIVATED PROTEIN (MAP)/ERK KINASE (MEK)1 AND MEK2 AND RELATED METHODS OF TREATMENT” (priority 2023, published 2026).
